{"source": "ChEMBL document CHEMBL4665770", "about": "“Design and Discovery of Natural Cyclopeptide Skeleton Based Programmed Death Ligand 1 Inhibitor as Immune Modulator for Cancer Therapy” (J Med Chem, 2020)", "note": "Square brackets hold non-standard residues; d marks the D form. Peptide text beside a SMILES is read from it. Orn = NCCC[C@H](N)C(=O)O"}
{"molecular_target": "Programmed cell death protein 1/Programmed cell death 1 ligand 1 (Homo sapiens) (UniProt Q15116+Q9NZQ7)", "assay": "Inhibition of PD1-Tag2/PD-L1-Tag1 (unknown origin) protein-protein interaction at 20 uM preincubated for 15 mins followed by addition of anti-Tag1-Eu3+ and anti-Tag2-XL665 measured after 3 hrs by HTRF assay relative to control", "format": "protein-complex assay", "details": "time 195.0 min", "units": {"inhibition": "%"}}
{"smiles": "CC(C)C[C@@H]1NC(=O)[C@H](CC(=O)O)NC(=O)[C@H]([C@@H](C)O)NC(=O)[C@@H]2CCCN2C(=O)[C@@H](Cc2ccccc2)NC(=O)[C@H](Cc2cnc[nH]2)NC(=O)[C@H](CCCNC(=N)N)NC(=O)[C@H](C(C)C)NC(=O)[C@@H]2CCCN2C(=O)[C@@H](Cc2ccccc2)NC1=O", "note": "(cyclo(DL[dF]PVRH[dF]PT))", "inhibition": 7.13}
{"smiles": "CC(C)C[C@@H]1NC(=O)[C@H](CCCNC(=N)N)NC(=O)[C@H](C(C)C)NC(=O)[C@@H]2CCCN2C(=O)[C@@H](Cc2ccccc2)NC(=O)[C@H](C)NC(=O)[C@H](C)NC(=O)[C@H](C(C)C)NC(=O)[C@@H]2CCCN2C(=O)[C@@H](Cc2ccccc2)NC1=O", "note": "(cyclo(AA[dF]PVRL[dF]PV))", "inhibition": 16.7}
{"smiles": "CC(C)C[C@@H]1NC(=O)[C@H](CC(=O)O)NC(=O)[C@H](C(C)C)NC(=O)[C@@H]2CCCN2C(=O)[C@@H](Cc2ccccc2)NC(=O)[C@H](CC(C)C)NC(=O)[C@H](CCCNC(=N)N)NC(=O)[C@H](C(C)C)NC(=O)[C@@H]2CCCN2C(=O)[C@@H](CCC(=O)O)NC1=O", "note": "(cyclo(DL[dE]PVRL[dF]PV))", "inhibition": 22.5}
{"smiles": "CC(C)C[C@@H]1NC(=O)[C@H](CCCNC(=N)N)NC(=O)[C@H](C)NC(=O)[C@@H]2CCCN2C(=O)[C@@H](Cc2ccccc2)NC(=O)[C@H](C)NC(=O)[C@H](CCCNC(=N)N)NC(=O)[C@H](C)NC(=O)[C@@H]2CCCN2C(=O)[C@@H](Cc2ccccc2)NC1=O", "note": "(cyclo(ARA[dF]PARL[dF]P))", "inhibition": 0.7}
{"smiles": "CC(C)C[C@@H]1NC(=O)[C@H](CCCNC(=N)N)NC(=O)[C@H](C)NC(=O)[C@@H]2CCCN2C(=O)[C@@H](Cc2ccccc2)NC(=O)[C@H](C)NC(=O)[C@H](CCCNC(=N)N)NC(=O)[C@H](C(C)C)NC(=O)[C@@H]2CCCN2C(=O)[C@@H](Cc2ccccc2)NC1=O", "note": "(cyclo(ARL[dF]PVRA[dF]P))", "inhibition": 6.3}
{"smiles": "CC(C)C[C@@H]1NC(=O)[C@H](CCCNC(=N)N)NC(=O)[C@H](C(C)C)NC(=O)[C@@H]2CCCN2C(=O)[C@@H](Cc2ccccc2)NC(=O)[C@H](CC(C)C)NC(=O)[C@H]([C@@H](C)O)NC(=O)[C@H](CC(=O)O)NC(=O)[C@@H]2CCCN2C(=O)[C@@H](Cc2ccccc2)NC1=O", "note": "(cyclo(DTL[dF]PVRL[dF]P))", "inhibition": 23.9}
{"smiles": "CC(NCCCC[C@@H]1NC(=O)[C@@H](Cc2ccccc2)NC(=O)[C@H](CC(C)C)NC(=O)[C@H](CC(=O)O)NC(=O)[C@H]([C@@H](C)O)NC(=O)[C@@H]2CCCN2C(=O)[C@@H](Cc2c[nH]c3ccccc23)NC(=O)[C@H](CC(C)C)N(C)C(=O)[C@H](CCCNC(=N)N)NC(=O)[C@H](C(C)C)NC1=O)=C1C(=O)CC(C)(C)CC1=O", "inhibition": 16.1}
{"smiles": "CC(C)C[C@@H]1NC(=O)[C@H](CCCN)NC(=O)[C@H](C(C)C)NC(=O)[C@@H]2CCCN2C(=O)[C@@H](Cc2ccccc2)NC(=O)[C@H](CC(C)C)NC(=O)[C@H](CCCN)NC(=O)[C@H](C(C)C)NC(=O)[C@@H]2CCCN2C(=O)[C@@H](Cc2ccccc2)NC1=O", "note": "(cyclo(V[Orn]L[dF]PV[Orn]L[dF]P))", "inhibition": 6.86}
{"smiles": "CC(C)C[C@@H]1NC(=O)[C@H](CCCNC(=N)N)NC(=O)[C@H](C(C)C)NC(=O)[C@@H]2CCCN2C(=O)[C@@H](Cc2ccccc2)NC(=O)[C@H](C)NC(=O)[C@H](CCCNC(=N)N)NC(=O)[C@H](C)NC(=O)[C@@H]2CCCN2C(=O)[C@@H](Cc2ccccc2)NC1=O", "note": "(cyclo(ARA[dF]PVRL[dF]P))", "inhibition": 43.6}
{"smiles": "CC(C)C[C@@H]1NC(=O)[C@H](CCCNC(=N)N)NC(=O)[C@H](C(C)C)NC(=O)[C@@H]2CCCN2C(=O)[C@@H](Cc2ccccc2)NC(=O)[C@H](C)NC(=O)[C@H](CCCNC(=N)N)NC(=O)[C@H](C(C)C)NC(=O)[C@@H]2CCCN2C(=O)[C@@H](Cc2ccccc2)NC1=O", "note": "(cyclo(A[dF]PVRL[dF]PVR))", "inhibition": 21}
{"smiles": "CC(C)C[C@@H]1NC(=O)[C@H](CCCNC(=N)N)NC(=O)[C@H](C(C)C)NC(=O)[C@@H]2CCCN2C(=O)[C@@H](Cc2ccccc2)NC(=O)[C@H](C)NC(=O)[C@H](CC(C)C)NC(=O)[C@H](C(C)C)NC(=O)[C@@H]2CCCN2C(=O)[C@@H](Cc2ccccc2)NC1=O", "note": "(cyclo(A[dF]PVRL[dF]PVL))", "inhibition": 4.03}
{"smiles": "CC(C)C[C@@H]1NC(=O)[C@H](CC(=O)O)NC(=O)[C@H]([C@@H](C)O)NC(=O)[C@@H]2CCCN2C(=O)[C@@H](Cc2ccccc2)NC(=O)[C@H](CC(C)C)NC(=O)[C@H](CCCCN)NC(=O)[C@H](C(C)C)NC(=O)[C@@H]2CCCN2C(=O)[C@@H](Cc2ccccc2)NC1=O", "note": "(cyclo(DL[dF]PVKL[dF]PT))", "inhibition": 3.52}
{"smiles": "CC(C)C[C@@H]1NC(=O)[C@H](CC(=O)O)NC(=O)[C@H]([C@@H](C)O)NC(=O)[C@@H]2CCCN2C(=O)[C@@H](Cc2ccccc2)NC(=O)[C@H](CC(N)=O)NC(=O)[C@H](CCCNC(=N)N)NC(=O)[C@H](C(C)C)NC(=O)[C@@H]2CCCN2C(=O)[C@@H](Cc2ccccc2)NC1=O", "note": "(cyclo(DL[dF]PVRN[dF]PT))", "inhibition": 17.4}
{"smiles": "CC(C)C[C@@H]1NC(=O)[C@H](CC(N)=O)NC(=O)[C@H]([C@@H](C)O)NC(=O)[C@@H]2CCCN2C(=O)[C@@H](Cc2ccccc2)NC(=O)[C@H](CC(C)C)NC(=O)[C@H](CCCNC(=N)N)NC(=O)[C@H](C(C)C)NC(=O)[C@@H]2CCCN2C(=O)[C@@H](Cc2ccccc2)NC1=O", "note": "(cyclo(L[dF]PTNL[dF]PVR))", "inhibition": 17}
{"smiles": "CC(C)C[C@@H]1NC(=O)[C@H](CCCNC(=N)N)NC(=O)[C@H](C(C)C)NC(=O)[C@@H]2CCCN2C(=O)[C@@H](Cc2ccccc2)NC(=O)[C@H](CC(C)C)NC(=O)[C@H](CCCNC(=N)N)NC(=O)[C@H](C(C)C)NC(=O)[C@@H]2CCCN2C(=O)[C@@H](Cc2ccccc2)NC1=O", "note": "(cyclo(L[dF]PVRL[dF]PVR))", "inhibition": -5.54}
{"smiles": "CC(C)C[C@@H]1NC(=O)[C@H](CCCNC(=N)N)NC(=O)[C@H](C(C)C)NC(=O)[C@@H]2CCCN2C(=O)[C@@H](Cc2ccccc2)NC(=O)[C@H](CC(C)C)NC(=O)[C@H]([C@@H](C)O)NC(=O)[C@@H]2CCCN2C(=O)[C@@H](Cc2ccccc2)NC(=O)[C@H](CC(=O)O)NC1=O", "note": "(cyclo(D[dF]PTL[dF]PVRL))", "inhibition": -2.13}
{"smiles": "CC(C)C[C@@H]1NC(=O)[C@H](CC(=O)O)NC(=O)[C@H](C(C)C)NC(=O)[C@@H]2CCCN2C(=O)[C@@H](Cc2ccccc2)NC(=O)[C@H](CC(C)C)NC(=O)[C@H](CCCNC(=N)N)NC(=O)[C@H](CCC(=O)O)NC(=O)[C@@H]2CCCN2C(=O)[C@@H](Cc2ccccc2)NC1=O", "inhibition": -3.03}
{"smiles": "CC(C)C[C@@H]1NC(=O)[C@H](CCC(=O)O)NC(=O)[C@H]([C@@H](C)O)NC(=O)[C@@H]2CCCN2C(=O)[C@@H](Cc2ccccc2)NC(=O)[C@H](CC(C)C)NC(=O)[C@H](CCCNC(=N)N)NC(=O)C(C(C)C)NC(=O)[C@@H]2CCCN2C(=O)[C@@H](Cc2ccccc2)NC1=O", "note": "(stereo not given in full)", "inhibition": 20.6}
{"smiles": "CC(C)C[C@@H]1NC(=O)[C@H](CCCNC(=N)N)NC(=O)[C@H](C(C)C)NC(=O)[C@@H]2CCCN2C(=O)[C@@H](Cc2ccccc2)NC(=O)[C@H](CC(C)C)NC(=O)[C@H](CCCNC(=N)N)NC(=O)[C@H](C(C)C)NC(=O)[C@H](C)NC(=O)[C@@H](Cc2ccccc2)NC1=O", "note": "(cyclo(L[dF]AVRL[dF]PVR))", "inhibition": 27.2}
{"smiles": "CCCC[C@@H]1NC(=O)[C@H](CC(=O)O)NC(=O)[C@H]([C@@H](C)O)NC(=O)[C@@H]2CCCN2C(=O)[C@@H](Cc2c[nH]c3ccccc23)NC(=O)[C@H](CC(C)C)NC(=O)[C@H](CCCNC(=N)N)NC(=O)[C@H](C(C)C)NC(=O)[C@H](CCCCNC(C)=C2C(=O)CC(C)(C)CC2=O)NC(=O)[C@@H](Cc2ccccc2)NC1=O", "inhibition": -2.81}
